From paper PMC7399811, “Analogues of a Cyclic Antimicrobial Peptide with a Flexible Linker Show Promising Activity against Pseudomonas aeruginosa and Staphylococcus aureus” (Antibiotics, 2020)
Converted amounts (≈) assume the structure as drawn. Square brackets hold non-standard residues; d marks the D form. Peptide text beside a SMILES is read from it. Bip = N[C@@H](Cc1ccc(-c2ccccc2)cc1)C(=O)O; 2Nal = N[C@@H](Cc1ccc2ccccc2c1)C(=O)O; Dab = NCC[C@H](N)C(=O)O; AEEA = NCCOCCOCC(=O)O

Legend:
red blood cells = settings: at 150 µM peptide; 0.5% v/v RBC in PBS, 1 h 37 °C, absorbance 414 nm, normalized to melittin (100%) and PBS (0%)
Experimental: A total of 150 µL of 5 µM melittin was added to the positive control wells 1-6H of a V-shaped 96-well polypropylene plate and left overnight. The melittin solution was removed and the positive control wells were washed 3 times with 150 µL PBS. Afterwards, a 2.5 µM melittin solution was added to the positive control wells. For the assay, 0-negative blood in EDTA was used. Blood was washed by mixing 3 mL of PBS with 1 mL of whole blood, and centrifuged for 8 min at 3000 rpm. The supernatant was discarded and 4 mL of PBS added, mixed gently, and centrifuged. This wash cycle was repeated but the last centrifuge velocity was raised to 4000 rpm. Next, 40 µL red blood cells (RBC) was suspended in 8 mL of PBS to achieve an RBC suspension of 0.5% volume/volume (v/v). Peptide solutions were prepared at 600 µM, two times the highest concentration. A total of 150 µL peptide solution was transferred to row A. Next, 75 µL PBS was transferred to wells B1 to G12, as well as H7-12 (negative control), and the peptides were serially diluted two-fold. Then, 75 µL RBC suspension was added to all wells and the plate was covered with a Microseal® film and incubated for 1 h at 37 °C. Next, the plate was centrifuged for 10 min at 4000 rpm. Subsequently, 60 µL supernatant was transferred into the corresponding wells of a clear, polystyrene, flat-bottomed 96-well ELISA plate. The absorbance was read at λ = 414 nm with a VersaMaxTM Tunable Microplate Reader and the data were evaluated on Softmax® Pro. The results were normalized with respect to the average positive (100%) and negative (0%) controls, as described previously [43].

E. coli ATCC 29522 = assay type: cell-based; settings: ATCC 29522
Experimental: (§1) Bacterial strains (E. coli ATCC 29522, S. aureus ATCC 29213, A. baumannii ATCC 19606, and P. aeruginosa ATCC 27853) were grown overnight on LB agar plates at 37 °C. Overnight cultures were prepared by inoculation of two to three colonies in 10 mL non-cation adjusted Mueller–Hinton broth (MHB) media (BD BBLTM Beef extract powder, BD BactoTMCasamino acids, and DIFCO soluble starch). Bacterial inoculum for MIC testing was prepared as balanced cultures, as previously described. The bacterial suspension was adjusted using MHB to an OD600 of 0.1, approximately 1·10^8 colony forming units (CFU/mL), and then diluted 1:200 in MHB, to give a final bacterial suspension of 5·10^5 CFU/mL, as described by Wiegand et al.. […] For MIC determination, all peptides were measured in triplicates using the protocol described by Wiegand et al. for “antimicrobial peptides that require the presence of acetic acid/BSA”. In brief, 20 µL peptide solution and gentamycin solution was transferred to column 1 of 96-well plates. Next, 10 µL 0.2% BSA; 0.01% acetic acid MHB media was transferred to column 2–11. Subsequently, peptides were serially diluted two-fold in the MIC plate and 90 µL bacterial suspension was transferred to all wells in column 1–11. Next, 100 µL bacterial suspension was transferred to column 12 D–F (growth control) and 100 µL media to column 12 A–C (sterility control). After an overnight incubation at 37 °C of the MIC plates, MIC values were determined as the lowest concentration at which there was no visible bacterial growth. For the inoculum control, 10 µL of solution from a positive-growth control well from each bacterial strain was dissolved in 990 µL phosphate-buffered saline (PBS) (1:100 dilution) in an Eppendorf tube. This solution was vortexed and 100 µL transferred to another Eppendorf tube containing 900 µL PBS (1:10 dilution) and vortexed. Then, 100 µL of each dilution was spread onto the MHB media plates, in triplicates, to achieve a CFU dilution of 1:1000 and 1:10,000, respectively. The plates were incubated overnight at 37 °C. The colonies were counted and 50 colonies were expected on the 1:10,000 plates and 500 on the 1:1000 plates.

A. baumannii ATCC 19606 = assay type: cell-based; settings: ATCC 19606
Experimental: as §1

S. aureus ATCC 29213 = assay type: cell-based
Experimental: as §1

P. aeruginosa ATCC 27853 = assay type: cell-based
Experimental: as §1

Structure (SMILES) | percent hemolytic activity against red blood cells (%H) (red blood cells) [%] | Minimum inhibitory concentration EC (E. coli ATCC 29522) [µg/mL] | Minimum inhibitory concentration AB (A. baumannii ATCC 19606) [µg/mL] | Minimum inhibitory concentration SA (S. aureus ATCC 29213) [µg/mL] | Minimum inhibitory concentration PA (P. aeruginosa ATCC 27853) [µg/mL]
N=C(N)NCCC[C@@H]1NC(=O)[C@H](CC(N)=O)NC(=O)[C@H](CCN)NC(=O)[C@H](Cc2ccc3ccccc3c2)NC(=O)COCCOCCNC(=O)[C@H](Cc2ccc(-c3ccccc3)cc2)NC(=O)[C@H](CCN)NC(=O)[C@H](CCN)NC(=O)[C@H](Cc2ccc3ccccc3c2)NC1=O [compound 10] (cyclo(R[2Nal][Dab][Dab][Bip][AEEA][2Nal][Dab]N)) | 66 | 32 (≈ 24 µM) | 32 (≈ 24 µM) | 2 (≈ 1.5 µM) | 2 (≈ 1.5 µM)
NCCCC[C@@H]1NC(=O)[C@H](Cc2ccccc2)NC(=O)COCCOCCNC(=O)[C@H](Cc2ccccc2)NC(=O)[C@H](CCCCN)NC(=O)[C@H](CCCCN)NC(=O)[C@H](Cc2ccccc2)NC(=O)[C@H](CCCCN)NC(=O)[C@H](CC(N)=O)NC1=O [compound 8] (cyclo(KFKKF[AEEA]FKN)) | 3 | >64 | >64 | >64 | >64
NCCCC[C@@H]1NC(=O)[C@H](Cc2ccccc2)NC(=O)COCCOCCNC(=O)[C@H](Cc2ccc(-c3ccccc3)cc2)NC(=O)[C@H](CCCCN)NC(=O)[C@H](CCCCN)NC(=O)[C@H](Cc2ccc3ccccc3c2)NC(=O)[C@H](CCCCN)NC(=O)[C@H](CC(N)=O)NC1=O [compound 7] (cyclo(K[2Nal]KK[Bip][AEEA]FKN)) | 7 | >64 | 64 (≈ 47.8 µM) | >64 | 64 (≈ 47.8 µM)
N=C(N)NCCC[C@@H]1NC(=O)[C@H](Cc2ccc3ccccc3c2)NC(=O)COCCOCCNC(=O)[C@H](Cc2ccc(-c3ccccc3)cc2)NC(=O)[C@H](CCCNC(=N)N)NC(=O)[C@H](CCCNC(=N)N)NC(=O)[C@H](Cc2ccc3ccccc3c2)NC(=O)[C@H](CCCNC(=N)N)NC(=O)[C@H](CC(N)=O)NC1=O [compound 14] (cyclo(R[2Nal]RR[Bip][AEEA][2Nal]RN)) | 68 | >64 | >64 | 32 (≈ 21.3 µM) | 32 (≈ 21.3 µM)
N=C(N)NCCC[C@@H]1NC(=O)[C@H](CCN)NC(=O)[C@H](Cc2ccc3ccccc3c2)NC(=O)[C@H](CCN)NC(=O)[C@H](CC(N)=O)NC(=O)[C@H](CCN)NC(=O)[C@H](Cc2ccc3ccccc3c2)NC(=O)COCCOCCNC(=O)[C@H](Cc2ccc(-c3ccccc3)cc2)NC1=O [compound 12] (cyclo([Dab][2Nal][Dab]R[Bip][AEEA][2Nal][Dab]N)) | 98 | 32 (≈ 24 µM) | 32 (≈ 24 µM) | 1 (≈ 0.75 µM) | 4 (≈ 3 µM)
NCCCC[C@@H]1NC(=O)[C@H](Cc2ccc3ccccc3c2)NC(=O)COCCOCCNC(=O)[C@H](Cc2ccc(-c3ccccc3)cc2)NC(=O)[C@H](CCCCN)NC(=O)[C@H](CC(N)=O)NC(=O)[C@H](Cc2ccc3ccccc3c2)NC(=O)[C@H](CCCCN)NC(=O)[C@H](CCCCN)NC1=O [compound 3] (cyclo(K[2Nal]NK[Bip][AEEA][2Nal]KK)) |  | >64 | 64 (≈ 46.1 µM) | 64 (≈ 46.1 µM) | 64 (≈ 46.1 µM)
NCCCC[C@@H]1NC(=O)[C@H](CCCCN)NC(=O)[C@H](Cc2ccc3ccccc3c2)NC(=O)[C@H](CCCCN)NC(=O)[C@H](CCCCN)NC(=O)[C@H](CC(N)=O)NC(=O)[C@H](Cc2ccc3ccccc3c2)NC(=O)COCCOCCNC(=O)[C@H](Cc2ccc(-c3ccccc3)cc2)NC1=O [compound 1] (cyclo(K[2Nal]KK[Bip][AEEA][2Nal]NK)) |  | >64 | 32 (≈ 23 µM) | >64 | 32 (≈ 23 µM)
NCCCC[C@@H]1NC(=O)[C@H](Cc2ccc3ccccc3c2)NC(=O)COCCOCCNC(=O)[C@H](Cc2ccc(-c3ccccc3)cc2)NC(=O)[C@H](CCCCN)NC(=O)[C@H](CCCCN)NC(=O)[C@H](Cc2ccc3ccccc3c2)NC(=O)[C@H](CC(N)=O)NC(=O)[C@H](CCCCN)NC1=O [compound 4] (cyclo(N[2Nal]KK[Bip][AEEA][2Nal]KK)) |  | >64 | 64 (≈ 46.1 µM) | >64 | 64 (≈ 46.1 µM)
N=C(N)NCCC[C@@H]1NC(=O)[C@H](Cc2ccc3ccccc3c2)NC(=O)[C@H](CCN)NC(=O)[C@H](CC(N)=O)NC(=O)[C@H](CCN)NC(=O)[C@H](Cc2ccc3ccccc3c2)NC(=O)COCCOCCNC(=O)[C@H](Cc2ccccc2)NC(=O)[C@H](CCN)NC1=O [compound 18] (cyclo([Dab][2Nal]R[Dab]F[AEEA][2Nal][Dab]N)) | 30 | 64 (≈ 50.9 µM) | >64 | 64 (≈ 50.9 µM) | 16 (≈ 12.7 µM)
N=C(N)NCCC[C@@H]1NC(=O)[C@H](Cc2ccc3ccccc3c2)NC(=O)[C@H](CCCNC(=N)N)NC(=O)[C@H](CC(N)=O)NC(=O)[C@H](CCN)NC(=O)[C@H](Cc2ccc3ccccc3c2)NC(=O)COCCOCCNC(=O)[C@H](Cc2ccccc2)NC(=O)[C@H](CCN)NC1=O [compound 16] (cyclo(R[2Nal]R[Dab]F[AEEA][2Nal][Dab]N)) | 16 | 64 (≈ 48.7 µM) | 64 (≈ 48.7 µM) |  | 16 (≈ 12.2 µM)
N=C(N)NCCC[C@@H]1NC(=O)[C@H](CC(N)=O)NC(=O)[C@H](CCN)NC(=O)[C@H](Cc2ccc3ccccc3c2)NC(=O)COCCOCCNC(=O)[C@H](Cc2ccccc2)NC(=O)[C@H](CCN)NC(=O)[C@H](CCN)NC(=O)[C@H](Cc2ccc3ccccc3c2)NC1=O [compound 17] (cyclo(R[2Nal][Dab][Dab]F[AEEA][2Nal][Dab]N)) | 3 | 64 (≈ 50.9 µM) | >64 | 64 (≈ 50.9 µM) | 16 (≈ 12.7 µM)
NCCCC[C@@H]1NC(=O)[C@H](Cc2ccc3ccccc3c2)NC(=O)COCCOCCNC(=O)[C@H](Cc2ccccc2)NC(=O)[C@H](CCCCN)NC(=O)[C@H](CCCCN)NC(=O)[C@H](Cc2ccc3ccccc3c2)NC(=O)[C@H](CCCCN)NC(=O)[C@H](CC(N)=O)NC1=O [compound 6] (cyclo(K[2Nal]KKF[AEEA][2Nal]KN)) | 6 | >64 | >64 | >64 | 32 (≈ 24.4 µM)
NCCCC[C@@H]1NC(=O)[C@H](Cc2ccc3ccccc3c2)NC(=O)COCCOCCNC(=O)[C@H](Cc2ccc(-c3ccccc3)cc2)NC(=O)[C@H](CC(N)=O)NC(=O)[C@H](CCCCN)NC(=O)[C@H](Cc2ccc3ccccc3c2)NC(=O)[C@H](CCCCN)NC(=O)[C@H](CCCCN)NC1=O [compound 2] (cyclo(K[2Nal]KN[Bip][AEEA][2Nal]KK)) |  | >64 | >64 | >64 | 64 (≈ 46.1 µM)
N=C(N)NCCC[C@@H]1NC(=O)[C@H](Cc2ccc3ccccc3c2)NC(=O)[C@H](CCCNC(=N)N)NC(=O)[C@H](CC(N)=O)NC(=O)[C@H](CCN)NC(=O)[C@H](Cc2ccc3ccccc3c2)NC(=O)COCCOCCNC(=O)[C@H](Cc2ccc(-c3ccccc3)cc2)NC(=O)[C@H](CCN)NC1=O [compound 15] (cyclo(R[2Nal]R[Dab][Bip][AEEA][2Nal][Dab]N)) |  | 64 (≈ 46.1 µM) | >64 | 8 (≈ 5.76 µM) | 16 (≈ 11.5 µM)
